Columns and labels:
CCR3 = CCR3 (Homo sapiens, UniProt P51677); test: NanoBiT β-arrestin2 recruitment to CCR3, concentration-response; format: cell-based
Description: The pharmacological modulation of all chemokine receptors by VUF16840 was performed according to an established method.[8]^,[23]^,[39] Briefly, β-arrestin2 recruitment to chemokine receptors in response to 1 μM VUF16840 or positive control chemokines was monitored by NanoLuc complementation assay (NanoBiT, Promega). Four hours after transfection, cells were harvested, incubated for 25 minutes at 37 °C with furimazine and distributed into a white 96-well plates (1 × 10^5 cells per well). β-Arrestin2 recruitment was then detected for 20 minutes upon treatment with 1 μM VUF16840 (or increasing concentrations ligand for experiments with CC chemokine receptor [CCR3]) using the Mithras LB940 luminometer (Berthold Technologies). To evaluate the antagonist properties of VUF16840, full agonists of each receptor were added after the 20-minute incubation with VUF16840. Signal from wells treated with full agonist only was defined as 100% activity and signals from wells treated with no agonist were used to set 0% activity.
Supplemental Figure 5 – Modulation of CCR3 receptor by VUF16840. Recruitment of β-arrestin2 towards CCR3 chemokine receptor was measured using a NLuc complementation assay in HEK293T cells. The concentration-dependent activation of the CCR3 was determined for VUF16840 and the endogenous agonist CCL13. All values depict the mean ± SD of ≥ 3 experiments.

D3-ACKR3+ cells = test: CXCL12 uptake in ACKR3-overexpressing hCMEC/D3 cells; format: cell-based, human
Text: Human CMEC (D3) cells (CVCL_U985) stably overexpressing ACKR3 and empty vector control were generated by retroviral transductions. The lentiviral expression vector encoding the human ACKR3 was created by cloning the ACKR3 gene (NM_020311.3 from GenScript) in the restriction sites Nhe1/Sma1 of the pLV-LifeAct (a kind gift of Dr Niels Heemskerk). Lentiviral particles were packaged in HEK293T cells, cultured in Dulbecco’s modified Eagle’s medium containing 10% fetal calf serum, 1% penicillin/streptomycin (ThermoFisher Scientific) at 37 °C in a 5% CO2 incubator. Lentiviral expression and packaging vectors were introduced using calcium phosphate transfection. […] Supernatant was taken off, cells were washed 1× with medium and CXCL12-A647 signal in cells was measured using a BioTek Cytation microplate reader (Agilent). […]
The sigmoidal concentration-dependent displacement of binding of the probes [^3H]VUF15485 and CXCL12-A647 by unlabeled ligands were analyzed using GraphPad Prism 8, by fitting a one-site binding model to the data, to determine the pIC50. Mean pIC50 values were determined by averaging fitted values from individual experiments. […] Mean pEC50 values and pIC50 values were determined by averaging fitted values from individual experiments. […]

hCXCR4-NLuc = target: T1, hCXCR4-NLuc (Homo sapiens, UniProt P61073); test: Bystander BRET detection of CXCR4 membrane localization; format: cell-based; details: 1 μM VUF16840
T1 construct: expressed in transfected cells; host or cells: HEK293T
Description: Ligand-induced receptor mobilization to the plasma membrane was monitored by bystander NanoBRET according to an established method.[36] For this assay, 5 × 10^6 HEK293T cells were seeded in 10-cm dishes and cotransfected with plasmids encoding ACKR3 C-terminally tagged with NLuc and mNeonGreen N-terminally tagged with the plasma membrane targeting sequence corresponding to the first 11 residues ([…]) of the human Lyn-kinase.[37] Twenty-four hours after transfection, cells were distributed into black 96-well plates (1 × 10^5 cells per well) and treated with chemokines (100 nM). After 45-minute incubation at 37 °C, coelenterazine H (10 μM) was added and donor emission (460 nm) and acceptor emission (535 nm) were immediately measured on a GloMax Discover (Promega) plate reader.
The resulting proximity between hACKR3-NLuc and was determined as bystander BRET. […] (B) The same assay was performed as in A for hCXCR4-NLuc. […] Expression of hACKR3-NLuc at the cell surface was determined by the measurement of bystander BRET. Depicted data represents the mean ± SD of 3 experiments with triplicate measurements per experiment.

CCR3, sequence (P51677 whole entry): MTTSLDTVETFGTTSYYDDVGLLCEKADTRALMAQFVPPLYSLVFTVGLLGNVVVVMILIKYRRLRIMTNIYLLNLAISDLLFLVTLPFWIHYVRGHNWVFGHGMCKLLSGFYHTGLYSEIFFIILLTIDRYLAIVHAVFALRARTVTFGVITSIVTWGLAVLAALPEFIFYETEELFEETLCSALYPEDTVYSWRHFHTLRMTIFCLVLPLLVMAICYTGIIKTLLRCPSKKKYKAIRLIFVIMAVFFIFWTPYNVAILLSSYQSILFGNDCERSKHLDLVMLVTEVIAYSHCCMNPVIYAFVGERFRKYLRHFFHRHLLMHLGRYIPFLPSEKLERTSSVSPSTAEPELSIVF
CCR3, sequence (P32121 whole entry partner): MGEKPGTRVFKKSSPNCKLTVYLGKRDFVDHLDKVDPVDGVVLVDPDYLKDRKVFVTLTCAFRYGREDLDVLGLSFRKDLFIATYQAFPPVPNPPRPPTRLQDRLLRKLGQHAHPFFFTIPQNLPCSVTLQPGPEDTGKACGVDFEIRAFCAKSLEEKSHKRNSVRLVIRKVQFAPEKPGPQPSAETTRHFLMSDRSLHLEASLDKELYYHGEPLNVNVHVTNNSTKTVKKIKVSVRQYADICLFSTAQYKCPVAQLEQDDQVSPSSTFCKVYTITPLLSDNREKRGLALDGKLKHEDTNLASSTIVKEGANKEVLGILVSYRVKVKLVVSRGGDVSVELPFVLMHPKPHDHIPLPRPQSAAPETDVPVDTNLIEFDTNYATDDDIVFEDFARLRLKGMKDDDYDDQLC
T1 sequence (P61073 whole entry): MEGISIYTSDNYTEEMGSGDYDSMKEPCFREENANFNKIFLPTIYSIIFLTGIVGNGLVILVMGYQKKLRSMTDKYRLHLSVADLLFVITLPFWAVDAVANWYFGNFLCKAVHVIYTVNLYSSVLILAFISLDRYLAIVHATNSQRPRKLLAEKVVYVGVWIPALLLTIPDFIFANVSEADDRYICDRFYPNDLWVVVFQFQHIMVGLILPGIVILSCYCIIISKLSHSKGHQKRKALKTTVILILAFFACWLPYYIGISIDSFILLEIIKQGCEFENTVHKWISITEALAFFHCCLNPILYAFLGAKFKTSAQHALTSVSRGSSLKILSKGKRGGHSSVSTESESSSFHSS

EC50 (CCR3; HEK293T, NanoBiT, read-out: EC50, activation of CCR3 (β-arrestin2 recruitment)): 200 nM
efficacy at CCR3 relative to endogenous agonist CCL13 (CCR3; β-arrestin2 recruitment): 1.4 fold
effect on CXCR4 surface expression (bystander BRET) (hCXCR4-NLuc): not affected
Compound: COc1ccccc1CCNC(=O)C1CN(C2CCCCC2)CCC1NC(=O)c1cc(-c2ccc(F)cc2F)on1 (centres unmarked) [VUF16840]
CXCL12-AF647 uptake (mean fluorescent intensity) (D3-ACKR3+ cells; 3 nM CXCL12-AF647 60 minutes, 1, 10 or 100 nM VUF16840): concentration-dependent inhibition
uptake of CXCL12-AF647 (confocal microscopy) (D3-ACKR3+ cells; 3 nM CXCL12-AF647, 100 nM VUF16840): abolished
